The target of one assay is Recombinant human FGFR1 (Homo sapiens, UniProt P11362). As to the kind of experiment: Transcreener Kinase Assay of FGFR1. It counts as biochemical. To be noted: read-out: FGFR1 (FP) IC50.
In another assay the target is Recombinant human FGFR2 (Homo sapiens, UniProt P21802). As to the kind of experiment: Transcreener Kinase Assay of FGFR2. Type of assay: biochemical. The following applies: read-out: FGFR2 (FP) IC50.
Another assay has as its target FGFR3 kinase (Homo sapiens, UniProt P22607). As to the kind of experiment: Z-Lyte Kinase Assay of FGFR3. It counts as biochemical. An outline of the steps: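 Kinase at 0.7 μg/ml with 4 μM Z-LYTE Tyr 4 peptide and ATP diluted to 300 uM (working solution, 1.33× buffer); compounds 1–0.00046 μM, 2% DMSO final. Kinase reaction and development each 1 h at RT (25-30[…]); coumarin (445 nm) and fluorescein (520 nm) emission read, inhibition from % phosphorylation.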

The test system of the next assay is KG-1. Briefly: Cellular Proliferation Assay (Cell Counting Kit-8), KG-1. Type of assay: cell-based. The following applies: Homo sapiens, KG1 cells, 72 hours. An outline of the steps: (§1)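 Seeding was 30,000 (KG-1), 5,000 (SNU-16) or 1,000 (RT-112) cells per well, with compound added 24 h later. Dilutions were prepared as an 8-point series of 10 to 0.004 μM in 5% DMSO, before addition to wells.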
For orientation: Tetrazolium dyes change colour on reduction, which living cells bring about.

Another assay concerns SNU-16. As to the kind of experiment: Cellular Proliferation Assay (Cell Counting Kit-8), SNU-16. It counts as cell-based. To be noted: Homo sapiens, SNU-16 cells, 72 hours. The method in brief: as §1
A further assay concerns RT-112. As to the kind of experiment: Cellular Proliferation Assay (Cell Counting Kit-8), RT-112. Type of assay: cell-based. To be noted: Homo sapiens, RT-112 cells, 72 hours. An outline of the steps: as §1

Chain of Recombinant human FGFR2 (P21802 22-821): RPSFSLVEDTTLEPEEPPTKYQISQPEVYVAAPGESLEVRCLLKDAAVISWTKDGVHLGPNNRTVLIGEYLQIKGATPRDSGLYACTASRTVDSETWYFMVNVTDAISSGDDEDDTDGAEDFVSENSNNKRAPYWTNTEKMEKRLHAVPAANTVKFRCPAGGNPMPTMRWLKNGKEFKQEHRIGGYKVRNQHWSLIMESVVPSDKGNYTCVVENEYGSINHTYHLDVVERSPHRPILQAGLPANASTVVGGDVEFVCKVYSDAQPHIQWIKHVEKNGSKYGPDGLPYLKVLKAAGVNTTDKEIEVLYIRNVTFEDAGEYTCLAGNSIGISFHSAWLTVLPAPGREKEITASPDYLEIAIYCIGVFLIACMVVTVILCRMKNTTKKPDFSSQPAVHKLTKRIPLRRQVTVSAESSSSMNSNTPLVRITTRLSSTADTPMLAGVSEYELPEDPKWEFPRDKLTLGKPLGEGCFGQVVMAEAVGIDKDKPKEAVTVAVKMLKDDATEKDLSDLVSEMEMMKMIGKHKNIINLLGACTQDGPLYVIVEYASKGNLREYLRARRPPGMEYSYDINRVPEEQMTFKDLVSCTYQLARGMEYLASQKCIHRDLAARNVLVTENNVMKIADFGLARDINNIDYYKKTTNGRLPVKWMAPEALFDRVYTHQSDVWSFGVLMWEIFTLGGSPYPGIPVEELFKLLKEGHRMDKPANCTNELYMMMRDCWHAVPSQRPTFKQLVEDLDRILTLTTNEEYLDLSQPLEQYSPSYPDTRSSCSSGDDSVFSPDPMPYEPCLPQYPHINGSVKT
Chain of Recombinant human FGFR1 (P11362 22-822): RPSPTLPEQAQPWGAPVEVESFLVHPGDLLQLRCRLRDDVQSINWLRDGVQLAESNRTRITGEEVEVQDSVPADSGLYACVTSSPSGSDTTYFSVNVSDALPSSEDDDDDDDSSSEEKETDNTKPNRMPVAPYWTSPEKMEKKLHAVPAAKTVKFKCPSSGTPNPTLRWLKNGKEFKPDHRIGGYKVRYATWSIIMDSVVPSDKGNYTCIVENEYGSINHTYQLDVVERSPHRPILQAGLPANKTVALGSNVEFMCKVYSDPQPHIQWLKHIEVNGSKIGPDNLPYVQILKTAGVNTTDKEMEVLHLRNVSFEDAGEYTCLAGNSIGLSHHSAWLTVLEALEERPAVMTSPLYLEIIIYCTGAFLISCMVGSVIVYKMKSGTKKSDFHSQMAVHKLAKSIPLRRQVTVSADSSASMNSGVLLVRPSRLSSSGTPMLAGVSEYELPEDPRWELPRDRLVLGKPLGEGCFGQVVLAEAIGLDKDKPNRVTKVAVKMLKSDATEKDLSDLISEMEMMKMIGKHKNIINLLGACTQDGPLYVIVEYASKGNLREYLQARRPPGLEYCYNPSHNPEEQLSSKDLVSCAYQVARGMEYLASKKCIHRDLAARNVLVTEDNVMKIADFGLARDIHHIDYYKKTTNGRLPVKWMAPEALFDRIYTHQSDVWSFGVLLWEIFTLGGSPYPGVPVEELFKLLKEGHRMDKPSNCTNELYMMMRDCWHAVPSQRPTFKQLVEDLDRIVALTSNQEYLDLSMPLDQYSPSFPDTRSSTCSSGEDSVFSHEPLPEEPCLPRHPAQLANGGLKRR
Chain of FGFR3 kinase (P22607 23-806): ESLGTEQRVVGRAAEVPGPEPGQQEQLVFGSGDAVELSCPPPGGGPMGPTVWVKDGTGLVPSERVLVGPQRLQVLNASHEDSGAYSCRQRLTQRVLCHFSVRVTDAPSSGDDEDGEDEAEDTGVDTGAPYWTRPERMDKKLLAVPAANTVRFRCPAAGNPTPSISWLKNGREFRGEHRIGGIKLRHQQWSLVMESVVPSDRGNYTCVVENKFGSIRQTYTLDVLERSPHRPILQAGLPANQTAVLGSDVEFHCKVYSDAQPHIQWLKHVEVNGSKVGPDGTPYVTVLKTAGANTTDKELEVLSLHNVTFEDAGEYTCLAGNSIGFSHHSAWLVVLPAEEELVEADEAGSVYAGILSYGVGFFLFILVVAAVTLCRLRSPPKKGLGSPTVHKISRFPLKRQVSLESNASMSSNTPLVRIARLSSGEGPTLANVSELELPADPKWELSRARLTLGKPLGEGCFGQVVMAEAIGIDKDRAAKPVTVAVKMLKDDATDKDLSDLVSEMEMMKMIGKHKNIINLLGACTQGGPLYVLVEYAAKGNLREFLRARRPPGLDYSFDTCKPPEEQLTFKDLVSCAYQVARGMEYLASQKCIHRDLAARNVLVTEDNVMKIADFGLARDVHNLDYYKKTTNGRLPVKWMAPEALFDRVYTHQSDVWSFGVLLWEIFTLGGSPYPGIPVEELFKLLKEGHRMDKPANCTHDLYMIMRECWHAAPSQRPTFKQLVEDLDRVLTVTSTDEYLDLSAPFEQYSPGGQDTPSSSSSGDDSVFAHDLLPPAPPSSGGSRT

Broadly, the IC50 is the midpoint of a concentration-inhibition curve. Consider `CCNC(=O)c1cc(CCc2cnc(Nc3cnn(C)c3)nc2)c(Cl)c(OC)c1` [Compound 147], for which the IC50 worked out at 0.019 µM on Recombinant human FGFR1; 0.01 µM on Recombinant human FGFR2; 0.022 µM on FGFR3 kinase; 0.048 µM with KG-1; 0.046 µM in the assay on SNU-16; 0.334 µM in the assay with RT-112.

Take `CNC(=O)c1cc(CCc2cnc(Nc3cnn(CCO)c3)nc2)c(Cl)c(OC)c1` [Compound 148]: the 50% inhibitory concentration (IC50) at Recombinant human FGFR1 turned out to be 0.009 µM; at Recombinant human FGFR2, 0.005 µM; on FGFR3 kinase, 0.014 µM; in the assay on KG-1 it was 0.024 µM; with SNU-16, 0.059 µM; in the assay with RT-112, 0.495 µM.

Consider `CNC(=O)c1cc(CCc2cnc(Nc3cnn(C(F)F)c3)nc2)c(Cl)c(OC)c1` [Compound 149], for which the half-maximal inhibitory concentration (IC50) on Recombinant human FGFR1 is 0.015 µM; on Recombinant human FGFR2 it was 0.008 µM; against FGFR3 kinase, 0.033 µM; in the assay with KG-1, 0.067 µM; with SNU-16, 0.017 µM; in the assay with RT-112, 0.021 µM.

Turning to `CNC(=O)c1cc(CCc2cnc(Nc3cnn(C[C@@H](C)O)c3)nc2)c(Cl)c(OC)c1` [Compound 150], the 50% inhibitory concentration (IC50) at Recombinant human FGFR1 was determined as 0.015 µM; on Recombinant human FGFR2, 0.006 µM; on FGFR3 kinase it was 0.006 µM; in the assay on KG-1, 0.031 µM; in the assay with SNU-16, 0.033 µM; in the assay on RT-112, 0.062 µM.

Turning to `CNC(=O)c1cc(CCc2cnc(Nc3cnn(-c4ccccn4)c3)nc2)c(Cl)c(OC)c1` [Compound 151], the IC50 at Recombinant human FGFR1 came out at 0.015 µM; on Recombinant human FGFR2, 0.016 µM; against FGFR3 kinase, 0.152 µM; with KG-1, 0.071 µM; in the assay with SNU-16, 0.149 µM; in the assay with RT-112 it was 0.626 µM.

Turning to `CNC(=O)c1cc(CCc2cnc(Nc3cnn(-c4ccc(C)nc4)c3)nc2)c(Cl)c(OC)c1` [Compound 152], the IC50 on Recombinant human FGFR1 was found to be 0.019 µM; on Recombinant human FGFR2, 0.012 µM; on FGFR3 kinase it was 0.038 µM; in the assay on KG-1, 0.056 µM; in the assay with SNU-16, 0.029 µM; in the assay on RT-112, 0.088 µM.

Take `CNC(=O)c1cc(CCc2cnc(Nc3cnn(CCS(C)(=O)=O)c3)nc2)c(Cl)c(OC)c1` [Compound 153]: the IC50 worked out at 0.015 µM at Recombinant human FGFR1; 0.007 µM at Recombinant human FGFR2; 0.016 µM at FGFR3 kinase; 0.177 µM with KG-1; 0.059 µM in the assay on SNU-16; 0.24 µM in the assay on RT-112.

On to `CNC(=O)c1cc(CCc2cnc(Nc3cnn(CC4CCN(C)CC4)c3)nc2)c(Cl)c(OC)c1` [Compound 154], for which the IC50 amounted to 0.012 µM on Recombinant human FGFR1; 0.005 µM at Recombinant human FGFR2; 0.009 µM against FGFR3 kinase; 0.37 µM with KG-1; 0.016 µM with SNU-16; 0.021 µM with RT-112.

For the molecule `CCN1CCC(Cn2cc(Nc3ncc(CCc4cc(C(=O)NC)cc(OC)c4Cl)cn3)cn2)CC1` [Compound 155], the IC50 was 0.01 µM on Recombinant human FGFR1; 0.004 µM on Recombinant human FGFR2; 0.004 µM at FGFR3 kinase; 0.461 µM with KG-1; 0.018 µM in the assay on SNU-16; 0.012 µM in the assay on RT-112.

Turning to `COc1cc(C(=O)NC2CC2)cc(CCc2cnc(Nc3cnn(C)c3)nc2)c1Cl` [Compound 157], the IC50 on Recombinant human FGFR1 is 0.02 µM; on Recombinant human FGFR2 it was 0.01 µM; against FGFR3 kinase, 0.019 µM; in the assay with KG-1, 0.048 µM; in the assay with SNU-16, 0.048 µM; in the assay with RT-112, 0.254 µM.

Consider `CNC(=O)c1cc(CCc2cnc(Nc3cnn([C@@H]4CCCNC4)c3)nc2)c(F)c(OC)c1` [Compound 159, (R)-4-fluoro-3-methoxy-N-methyl-5-(2-(2-(1-(piperidin-3-yl)-1H-pyrazol-4-ylamino)pyrimidin-5-yl)ethyl)benzamide], for which the half-maximal inhibitory concentration (IC50) at Recombinant human FGFR1 turned out to be 0.008 µM; at Recombinant human FGFR2, 0.006 µM; against FGFR3 kinase it was 0.008 µM; in the assay with KG-1, 0.29 µM; in the assay on SNU-16, 0.075 µM; in the assay with RT-112, 0.759 µM.

`CNC(=O)c1cc(CCc2cnc(Nc3cnn([C@H]4CCCNC4)c3)nc2)c(F)c(OC)c1` [Compound 163]: the IC50 on Recombinant human FGFR1 is 0.007 µM; at Recombinant human FGFR2 it was 0.006 µM; at FGFR3 kinase it was 0.008 µM; in the assay with KG-1, 0.201 µM; in the assay with SNU-16, 0.06 µM; with RT-112, 0.584 µM.

Turning to `CNC(=O)c1cc(CCc2cnc(Nc3cnn([C@@H]4CCCN(C)C4)c3)nc2)c(F)c(OC)c1` [Compound 165, (R)-4-fluoro-3-methoxy-N-methyl-5-(2-(2-(1-(1-methylpiperidin-3-yl)-1H-pyrazol-4-ylamino)pyrimidin-5-yl)ethyl)benzamide], the IC50 on Recombinant human FGFR1 was determined as 0.011 µM; at Recombinant human FGFR2 it was 0.007 µM; against FGFR3 kinase, 0.007 µM; in the assay on KG-1, 0.056 µM; in the assay on SNU-16, 0.023 µM; in the assay with RT-112, 0.106 µM.

Regarding `CNC(=O)c1cc(CCc2cnc(Nc3cnn(C4CN(C)C4)c3)nc2)c(F)c(OC)c1` [Compound 166], the IC50 on Recombinant human FGFR1 amounted to 0.02 µM; on Recombinant human FGFR2, 0.013 µM; against FGFR3 kinase, 0.015 µM; in the assay with KG-1, 0.069 µM; with SNU-16, 0.057 µM; in the assay on RT-112 it was 0.592 µM.

For the molecule `CCN1CC(n2cc(Nc3ncc(CCc4cc(C(=O)NC)cc(OC)c4F)cn3)cn2)C1` [Compound 167], the IC50 worked out at 0.018 µM on Recombinant human FGFR1; 0.01 µM at Recombinant human FGFR2; 0.015 µM at FGFR3 kinase; 0.062 µM in the assay on KG-1; 0.048 µM in the assay with SNU-16; 0.382 µM in the assay on RT-112.

Take `CNC(=O)c1cc(CCc2cnc(Nc3cnn([C@H]4CCN(C)C4)c3)nc2)c(F)c(OC)c1` [Compound 168]: the IC50 was 0.016 µM at Recombinant human FGFR1; 0.011 µM at Recombinant human FGFR2; 0.015 µM on FGFR3 kinase; 0.032 µM in the assay with KG-1; 0.016 µM in the assay with SNU-16; 0.414 µM in the assay on RT-112.

Turning to `CNC(=O)c1cc(CCc2cnc(Nc3cnn([C@@H]4CCN(C)C4)c3)nc2)c(F)c(OC)c1` [Compound 169], the IC50 at Recombinant human FGFR1 was determined as 0.015 µM; on Recombinant human FGFR2 it was 0.014 µM; against FGFR3 kinase, 0.015 µM; in the assay on KG-1, 0.017 µM; in the assay on SNU-16 it was 0.018 µM; in the assay on RT-112, 0.539 µM.

On to `CCN1CC[C@@H](n2cc(Nc3ncc(CCc4cc(C(=O)NC)cc(OC)c4F)cn3)cn2)C1` [Compound 171], for which the half-inhibitory concentration (IC50) on Recombinant human FGFR1 worked out at 0.043 µM; at Recombinant human FGFR2 it was 0.041 µM; at FGFR3 kinase it was 0.05 µM; with KG-1, 0.128 µM; in the assay with SNU-16, 0.048 µM; with RT-112, 0.655 µM.

In the case of `CNC(=O)c1cc(CCc2cnc(Nc3cnn([C@H]4CCCN(C)C4)c3)nc2)c(F)c(OC)c1` [Compound 172], the IC50 at Recombinant human FGFR1 is 0.009 µM; at Recombinant human FGFR2 it was 0.006 µM; at FGFR3 kinase, 0.006 µM; with KG-1, 0.022 µM; in the assay on SNU-16 it was 0.014 µM; in the assay with RT-112 it was 0.064 µM.

As to `CNC(=O)c1cc(CCc2cnc(Nc3cnn(C4CCN(C)CC4)c3)nc2)c(F)c(OC)c1` [Compound 173], the IC50 on Recombinant human FGFR1 was 0.008 µM; at Recombinant human FGFR2 it was 0.007 µM; at FGFR3 kinase it was 0.028 µM; with KG-1 it was 0.041 µM; with SNU-16, 0.02 µM; in the assay on RT-112, 0.135 µM.

As to `CCN1CCC[C@@H](n2cc(Nc3ncc(CCc4cc(C(=O)NC)cc(OC)c4F)cn3)cn2)C1` [Compound 174], the IC50 at Recombinant human FGFR1 was 0.01 µM; on Recombinant human FGFR2, 0.006 µM; on FGFR3 kinase, 0.005 µM; with KG-1, 0.04 µM; with SNU-16, 0.017 µM; in the assay on RT-112 it was 0.065 µM.

The values above are taken from patent US20160052926A1, “NOVEL PYRIMIDINE AND PYRIDINE COMPOUNDS AND USAGE THEREOF” (HUTCHISON MEDIPHARMA LIMITED, priority 2013, published 2016).
